Source: US10517952B2, “Nucleophile-triggered degradable materials and methods of making and using the same” (GEORGIA TECH RESEARCH CORPORATION, priority 2014, dated 2019)

Legend:
[1] = Release of entrained cargo from PEG-OND hydrogels; format: physicochemical
Protocol: Finally, the diffusion of entrained, rather than covalently anchored, cargos of different sizes out of OND hydrogels of differing stabilities was measured. This was done with a small molecule (carboxyfluorescein), a globular protein (fluorescein-labeled bovine serum albumin, BSA), and a 30-nm protein nanoparticle (fluorescein-labeled bacteriophage Qb virus-like particle). The first and last species have no available thiol groups; the second was reacted with N-ethylmaleimide before gelation to cap cysteine-34 and avoid tethering of the protein cargo to the hydrogel network. Hydrogels derived from 4-PEG-SH and 7a, 7b, or 8 were formed in the presence of each cargo; the speed of this reaction made it highly unlikely that OND connectors were addressed by protein amine groups under these conditions.
Three sets of three 60 μL gels were prepared using linkers 7a, 7b, and 8, respectively. The first set contained 1 mM small molecule probe 5/6-carboxyfluorescein, while the second and third sets contained FITC labeled BSA and Qβ virus-like particle, respectively. The gels were allowed to set for 30 minutes at room temperature before dilution with 3 mL of pH 7.4 100 mM phosphate buffered saline. The samples were incubated at 37° C. and the increase in absorbance of the supernatant at 497 nm was monitored. The fraction of released dye was plotted against incubation time. Least-squares kinetic fitting to a first-order rate law was performed for release profiles obtained for carboxyfluorescein cargo, and for the release of BSA from non-degradable PEG-EONB (8) hydrogel (Solver plug-in, Microsoft Excel).

[2] = Equilibrium swelling, gel fraction and Mc (Flory-Rehner) of PEG-OND hydrogels; format: physicochemical; conditions: for Mc (apparent molecular weight between elastic crosslinks): calculated with the Flory-Rehner equation from swelling results; for Gel Fraction: mass of dry residue post-swelling/input mass of OND and 4-PEG-SH; for Equilibrium Swelling Ratio: mass post-swelling/mass pre-swelling, deionized water, 4° C., 24 hours, n = 3 gels
Protocol: The swelling of the PEG-OND hydrogels in deionized water was measured at 4° C. to prevent significant fragmentation during the experiment. […] An independent experiment measuring soluble fraction thiol content yielded results complementing those obtained gravimetrically (Table S3, and related discussion below). With the knowledge that small molecules can readily permeate swollen PEG-OND hydrogels (see below), detecting and modifying residual thiols in gels prepared from divalent linkers 7a and 8 by swelling in the presence of a fluorogenic OND derivative was attempted (FIG. 15, and related discussion below).
200 μL gels were prepared in pH 7.4 100 mM phosphate buffered saline containing 7% DMSO with 3.5 wt % 4-PEG-SH and the corresponding bis-, tris-, and tetra-ONDs to provide a 1:1 thiol to electrophile ratio, and allowed to cure for 20 minutes at room temperature. The mass of the gels after curing was recorded (Meq) before suspending in 5.5 mL of water. The hydrogels were stored at 4° C. during swelling to prevent significant degradation of the network during the experiment. The increase in mass of the gels was monitored periodically by decanting and blotting the gel gently with a kimwipe to remove excess water before weighing. After 24 hours swelling, when swelling had stabilized, the mass of the gel was recorded (Meq). The equilibrium mass swelling ratio was then determined using the following relationship:
After weighing equilibrium-swelled gels to determine equilibrium mass swelling ratio, the gels were freeze-dried and the residual mass was weighed (Mres). It is expected that buffer salts present in the sample when it was formed were removed by the multiple changes of swelling solvent (pure water). The mass of the remaining residue was compared to the input mass (Min) of 4-PEG-SH macromer and OND-based linker. The ratio of the residual mass and the input mass provides the fraction of material by mass incorporated into the hydrogel network (gel fraction), as shown in the following equation: […]
The apparent molecular weight between elastically-productive crosslinks (Mc) was determined from equilibrium swelling data, collected as described in section VII.1 and applying a modified form of the Flory-Rehner equation for networks formed under dilute conditions:
[formula] where Mn is the number average molecular weight for the polymeric macromer (10,000 g/mol), v is the specific volume of the polymer ([…] for PEG) V1 is the molar volume of solvent used for swelling ([…] for water), χ is the polymer-interaction parameter (0.43 for PEG-H2O and assumed constant for the described experiments). V2, and V2, are the volume fraction of polymer in the equilibrium swollen gel and the relaxed gel after curing, respectively, and are calculated as follows:
[formula] where qw is the weight swelling ratio after equilibrium swelling, qF is the weight swelling ratio after curing, ρp is the density of the polymer (1.12 g/cm^3 for PEG), ρwater=ρcure solvent is the density of swelling solvent and solvent during gel formation (1.00 g/cm^3 for water). The weight swelling ratios qw and qF are determined from data gathered in equilibrium swelling experiments using the following relationships:
[formula] where ms is the mass of the gel after equilibrium swelling, mc is the mass of the gel after curing, and md is the mass of the dried gel, or input mass of polymer and crosslinkers.
Using the formulae above, masses of hydrogel samples recorded after equilibrium swelling, curing, and drying were applied to estimate the apparent molecular weight between crosslinks, which are summarized in Table 1 of the main text. The experimentally observed Mc values for gels formed using divalent OND linkers was lower than theoretical ideal value Mc,ideal. This can be explained by the fact that the Mc,ideal values calculated for these gels (entries 1-5 of Table S1) are greater than the entanglement molecular weight for polyethylene glycol (˜4,400 g/mol). […]

[3] = Calculation of hydrogel mesh size from equilibrium swelling data; format: physicochemical; conditions: for Average mesh size: average for equilibrium swelled hydrogels from linkers 7a, 7b and 8; for Calculated mesh size: equilibrium-swollen gels
Protocol: Using the calculated molecular weight between crosslinks, Mc, and the method previously described by Canal and Peppas, the hydrogel mesh size was calculated. First, the root-mean-square end-to-end distance of the polymer chains in the network, (r0^2)^1/2, was calculated as follows: (r0^2)^1/2=lCn^1/2n^1/2 (Equation S10) where l is the average bond length in the polymer (0.146 nm for PEG) and Cn is the characteristic ratio of the polymer (4.0 for PEG). The average number of bonds between crosslinks, n is calculated using the following equation:
[formula] where Mc is the average molecular weight between crosslinks, calculated as described in the previous section, and Mr is the molecular weight of the repeating unit for the PEG macromer (44 g/mol). Finally, the mesh size, ξ, is calculated using the following relationship: ξ=v2,s^−1/3(r0^2)^1/2 (Equation S12) where v2, is the partial volume of polymer in the equilibrium swollen hydrogel, and is calculated using the experimentally determined equilibrium weight swelling ratios.

Fraction of BSA tethered to the network / not freely diffusing from the gel ([1]; FITC-BSA with ˜0.4 accessible thiols per protein)	Release of entrained BSA from the gel compared with more stable matrices ([1]; N-ethylmaleimide-capped FITC-BSA, pH 7.4, 37° C.)	SMILES	Release of entrained Qβ virus-like particles from the gel ([1]; pH 7.4, 37° C.)	Mc (apparent molecular weight between elastic crosslinks) [2]	Gel Fraction [2]	Equilibrium Swelling Ratio [2]	Average mesh size [3]	Calculated mesh size [3]	melting point
		COC(=O)C1=C(C(=O)OC)C2(CNC(=O)CCCC(=O)NCC34OC(C(C(=O)OC)=C3C(=O)OC)C3OC34)OC1C1OC12 (stereo not drawn) [Linker 8, Tetramethyl 1,1′-((glutaroylbis(azanediyl))bis(methylene))bis(3,8-dioxatricyclo[3.2.1.0^2,4]oct-6-ene-6,7-dicarboxylate)]	not released	3900 ± 93 g/mol	0.97 ± 0.01	1.60 ± 0.10	14.0±1.0 nm	14.0 ± 0.9 nm	125 to 130 °C
~20%	markedly faster	COC(=O)C1=C(C(=O)OC)C2(CNC(=O)CCCC(=O)NCC34C=CC(O3)C(C(=O)OC)=C4C(=O)OC)C=CC1O2 [Linker 7a, Tetramethyl 1,1′-((glutaroylbis(azanediyl))bis(methylene))bis(7-oxabicyclo[2.2.1]hepta-2,5-diene-2,3-dicarboxylate)]		4080 ± 57 g/mol	0.91 ± 0.03	1.7 ± 0.04	14.0±1.0 nm	15.2 ± 0.9 nm	163 to 167 °C
